Here are results for 3 compounds from ChEMBL document CHEMBL1166002, “Vanchrobactin and anguibactin siderophores produced by Vibrio sp. DS40M4” (J Nat Prod, 2010).

This assay deals with PC-3. In words: Cytotoxicity against human PC3 cells by MTT assay. Format: functional, cell-based.
Turning to `N=C(N)NCCC[C@@H](NC(=O)c1cccc(O)c1O)C(=O)N[C@@H](COC(=O)[C@H](CO)NC(=O)[C@@H](CCCNC(=N)N)NC(=O)c1cccc(O)c1O)C(=O)O` [DIVANCHROBACTIN], the IC50 entry is reported as “Not Active”.
The value for `N=C(N)NCCC[C@@H](NC(=O)c1cccc(O)c1O)C(=O)N[C@@H](CO)C(=O)O` [VANCHROBACTIN] was “Not Active”.
The value for `N=C(N)NCCC[C@@H](NC(=O)c1cccc(O)c1O)C(=O)N[C@@H](COC(=O)[C@H](COC(=O)[C@H](CO)NC(=O)[C@@H](CCCNC(=N)N)NC(=O)c1cccc(O)c1O)NC(=O)[C@@H](CCCNC(=N)N)NC(=O)c1cccc(O)c1O)C(=O)O` [TRIVANCHROBACTIN] was “Not Active”.
